Experimental data: ChEMBL document CHEMBL1201862, “PubChem BioAssay data set” (2004)
Active and inactive are the calls of the source.

Assays:
cells [1] = assay: cells
Major prion protein = Major prion protein (Homo sapiens, UniProt P04156); format: functional, cell-based
[2] = biological target: Peroxisome proliferator-activated receptor gamma/Nuclear receptor coactivator 2 (Homo sapiens, UniProt P37231); format: functional;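 note: agonist potency for raising coactivator recruitment to the receptor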
[3] = biological target: Peroxisome proliferator-activated receptor gamma/Nuclear receptor coactivator 1 (Homo sapiens, UniProt P37231); format: functional;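 note: agonist potency as compounds enhance coactivator SRC-1 recruitment to PPARgamma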
Sequence of Peroxisome proliferator-activated receptor gamma/Nuclear receptor coactivator 1 (P37231 whole entry): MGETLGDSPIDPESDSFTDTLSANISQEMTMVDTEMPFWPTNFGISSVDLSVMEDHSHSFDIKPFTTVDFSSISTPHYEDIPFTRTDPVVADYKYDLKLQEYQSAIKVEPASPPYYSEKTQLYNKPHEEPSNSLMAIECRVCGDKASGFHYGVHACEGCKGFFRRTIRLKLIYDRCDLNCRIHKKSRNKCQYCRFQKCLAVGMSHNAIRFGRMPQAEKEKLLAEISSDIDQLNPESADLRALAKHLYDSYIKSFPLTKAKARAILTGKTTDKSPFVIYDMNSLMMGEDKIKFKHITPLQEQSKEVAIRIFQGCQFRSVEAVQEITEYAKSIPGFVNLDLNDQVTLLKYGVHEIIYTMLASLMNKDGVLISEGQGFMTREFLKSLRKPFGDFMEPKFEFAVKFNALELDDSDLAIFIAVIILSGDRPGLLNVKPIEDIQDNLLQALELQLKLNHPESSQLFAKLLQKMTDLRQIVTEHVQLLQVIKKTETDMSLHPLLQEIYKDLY
Sequence of Peroxisome proliferator-activated receptor gamma/Nuclear receptor coactivator 1 (Q15788 whole entry, further chain): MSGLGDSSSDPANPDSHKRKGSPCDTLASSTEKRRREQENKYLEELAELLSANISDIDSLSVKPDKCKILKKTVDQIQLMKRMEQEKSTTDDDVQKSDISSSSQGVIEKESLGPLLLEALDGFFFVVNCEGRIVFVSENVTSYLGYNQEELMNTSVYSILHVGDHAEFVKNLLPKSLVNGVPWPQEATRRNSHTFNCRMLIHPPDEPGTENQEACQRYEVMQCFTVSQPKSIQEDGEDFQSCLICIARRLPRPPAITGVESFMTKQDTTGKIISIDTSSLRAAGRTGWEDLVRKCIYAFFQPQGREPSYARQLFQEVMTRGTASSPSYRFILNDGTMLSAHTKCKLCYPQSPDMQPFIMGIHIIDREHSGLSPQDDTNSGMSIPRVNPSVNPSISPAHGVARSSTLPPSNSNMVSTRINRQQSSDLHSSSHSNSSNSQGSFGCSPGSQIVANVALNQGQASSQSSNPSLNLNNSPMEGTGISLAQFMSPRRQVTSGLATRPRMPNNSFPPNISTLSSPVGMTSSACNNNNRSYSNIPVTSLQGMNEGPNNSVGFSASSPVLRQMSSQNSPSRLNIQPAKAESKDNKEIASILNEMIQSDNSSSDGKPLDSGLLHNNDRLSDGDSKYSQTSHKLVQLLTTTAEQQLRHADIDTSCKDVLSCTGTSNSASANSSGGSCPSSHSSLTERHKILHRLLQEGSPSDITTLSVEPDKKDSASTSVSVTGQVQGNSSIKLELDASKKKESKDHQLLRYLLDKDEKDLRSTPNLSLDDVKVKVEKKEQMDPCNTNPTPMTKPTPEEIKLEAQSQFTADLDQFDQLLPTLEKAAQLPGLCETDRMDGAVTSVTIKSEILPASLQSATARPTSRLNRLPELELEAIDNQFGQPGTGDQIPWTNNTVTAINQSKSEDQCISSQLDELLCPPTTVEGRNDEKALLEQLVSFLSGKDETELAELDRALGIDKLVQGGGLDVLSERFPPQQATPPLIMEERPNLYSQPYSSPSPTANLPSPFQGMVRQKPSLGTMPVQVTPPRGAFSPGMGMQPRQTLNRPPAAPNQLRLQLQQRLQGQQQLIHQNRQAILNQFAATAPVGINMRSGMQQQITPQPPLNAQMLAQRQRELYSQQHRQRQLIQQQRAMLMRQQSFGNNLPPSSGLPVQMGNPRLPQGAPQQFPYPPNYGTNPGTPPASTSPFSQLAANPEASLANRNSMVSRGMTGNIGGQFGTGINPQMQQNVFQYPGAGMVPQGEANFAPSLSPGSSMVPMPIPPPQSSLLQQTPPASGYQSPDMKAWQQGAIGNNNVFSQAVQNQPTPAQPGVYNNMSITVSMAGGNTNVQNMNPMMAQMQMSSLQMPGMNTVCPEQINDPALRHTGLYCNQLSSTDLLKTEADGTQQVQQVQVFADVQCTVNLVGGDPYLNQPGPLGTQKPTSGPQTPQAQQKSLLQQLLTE

[4] = biological target: Peroxisome proliferator-activated receptor gamma/Nuclear receptor coactivator 3 (Homo sapiens, UniProt P37231); format: functional;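 note: agonist potency for raising coactivator recruitment to the receptor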
Sequence of Peroxisome proliferator-activated receptor gamma/Nuclear receptor coactivator 3 (P37231 whole entry): as the sequence (P37231 whole entry) above
Sequence of Peroxisome proliferator-activated receptor gamma/Nuclear receptor coactivator 3 (Q9Y6Q9 whole entry, further chain): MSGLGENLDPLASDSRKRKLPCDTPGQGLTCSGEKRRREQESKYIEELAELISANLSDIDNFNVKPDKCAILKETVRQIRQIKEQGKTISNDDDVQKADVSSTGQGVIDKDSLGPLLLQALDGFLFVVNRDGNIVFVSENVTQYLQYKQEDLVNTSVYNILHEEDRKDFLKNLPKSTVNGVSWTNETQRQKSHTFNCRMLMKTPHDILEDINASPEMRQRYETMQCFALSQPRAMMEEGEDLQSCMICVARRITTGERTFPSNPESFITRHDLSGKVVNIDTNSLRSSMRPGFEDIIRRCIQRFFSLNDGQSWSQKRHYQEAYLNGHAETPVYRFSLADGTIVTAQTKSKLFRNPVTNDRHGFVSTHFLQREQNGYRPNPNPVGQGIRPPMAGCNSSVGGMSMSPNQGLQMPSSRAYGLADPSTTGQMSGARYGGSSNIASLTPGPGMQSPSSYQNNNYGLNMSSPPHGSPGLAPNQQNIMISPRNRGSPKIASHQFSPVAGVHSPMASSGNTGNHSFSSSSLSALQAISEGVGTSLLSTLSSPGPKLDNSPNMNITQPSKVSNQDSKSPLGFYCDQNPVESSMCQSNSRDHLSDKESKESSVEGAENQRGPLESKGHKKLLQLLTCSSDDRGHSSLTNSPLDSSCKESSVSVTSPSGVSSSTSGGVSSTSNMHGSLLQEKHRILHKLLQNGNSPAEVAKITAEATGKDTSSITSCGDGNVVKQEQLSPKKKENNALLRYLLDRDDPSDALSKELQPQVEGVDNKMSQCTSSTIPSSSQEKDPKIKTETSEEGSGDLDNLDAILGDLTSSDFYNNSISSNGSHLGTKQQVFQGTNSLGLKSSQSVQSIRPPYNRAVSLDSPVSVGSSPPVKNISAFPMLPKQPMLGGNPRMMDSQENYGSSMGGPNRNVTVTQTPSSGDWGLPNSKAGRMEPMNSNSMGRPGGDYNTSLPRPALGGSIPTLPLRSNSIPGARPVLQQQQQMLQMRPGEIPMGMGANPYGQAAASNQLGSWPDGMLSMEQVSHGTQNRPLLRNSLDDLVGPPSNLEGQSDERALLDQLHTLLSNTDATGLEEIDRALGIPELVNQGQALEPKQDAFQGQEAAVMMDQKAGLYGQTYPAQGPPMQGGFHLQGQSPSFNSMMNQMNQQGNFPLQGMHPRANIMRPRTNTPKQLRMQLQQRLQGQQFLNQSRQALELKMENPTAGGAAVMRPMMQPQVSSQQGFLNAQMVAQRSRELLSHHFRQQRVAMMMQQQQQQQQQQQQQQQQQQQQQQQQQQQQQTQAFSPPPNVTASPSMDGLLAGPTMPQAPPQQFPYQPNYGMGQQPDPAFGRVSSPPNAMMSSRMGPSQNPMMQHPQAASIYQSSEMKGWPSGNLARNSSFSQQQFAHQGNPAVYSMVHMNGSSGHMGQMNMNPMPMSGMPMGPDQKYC

[5] = Trypanosoma cruzi growth suppression in host cells – NIH3T3 host cells, beta-gal luminescence, confirmation (AID 2044); format: functional, cell-based;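 note: intracellular parasites grown in NIH/3T3 mouse fibroblasts as host cells; luminescent beta-galactosidase reporter signal from transgenic T. cruzi replicating inside host cells; inhibitors lower the luminescence signal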
Beta-galactosidase = Beta-galactosidase (Escherichia coli, UniProt Q8VNN2); assay: Dose response counterscreen for EBI2 assay utilizing the enzyme, b-galactosidase.; format: functional
Sequence of Beta-galactosidase (Q8VNN2 whole entry): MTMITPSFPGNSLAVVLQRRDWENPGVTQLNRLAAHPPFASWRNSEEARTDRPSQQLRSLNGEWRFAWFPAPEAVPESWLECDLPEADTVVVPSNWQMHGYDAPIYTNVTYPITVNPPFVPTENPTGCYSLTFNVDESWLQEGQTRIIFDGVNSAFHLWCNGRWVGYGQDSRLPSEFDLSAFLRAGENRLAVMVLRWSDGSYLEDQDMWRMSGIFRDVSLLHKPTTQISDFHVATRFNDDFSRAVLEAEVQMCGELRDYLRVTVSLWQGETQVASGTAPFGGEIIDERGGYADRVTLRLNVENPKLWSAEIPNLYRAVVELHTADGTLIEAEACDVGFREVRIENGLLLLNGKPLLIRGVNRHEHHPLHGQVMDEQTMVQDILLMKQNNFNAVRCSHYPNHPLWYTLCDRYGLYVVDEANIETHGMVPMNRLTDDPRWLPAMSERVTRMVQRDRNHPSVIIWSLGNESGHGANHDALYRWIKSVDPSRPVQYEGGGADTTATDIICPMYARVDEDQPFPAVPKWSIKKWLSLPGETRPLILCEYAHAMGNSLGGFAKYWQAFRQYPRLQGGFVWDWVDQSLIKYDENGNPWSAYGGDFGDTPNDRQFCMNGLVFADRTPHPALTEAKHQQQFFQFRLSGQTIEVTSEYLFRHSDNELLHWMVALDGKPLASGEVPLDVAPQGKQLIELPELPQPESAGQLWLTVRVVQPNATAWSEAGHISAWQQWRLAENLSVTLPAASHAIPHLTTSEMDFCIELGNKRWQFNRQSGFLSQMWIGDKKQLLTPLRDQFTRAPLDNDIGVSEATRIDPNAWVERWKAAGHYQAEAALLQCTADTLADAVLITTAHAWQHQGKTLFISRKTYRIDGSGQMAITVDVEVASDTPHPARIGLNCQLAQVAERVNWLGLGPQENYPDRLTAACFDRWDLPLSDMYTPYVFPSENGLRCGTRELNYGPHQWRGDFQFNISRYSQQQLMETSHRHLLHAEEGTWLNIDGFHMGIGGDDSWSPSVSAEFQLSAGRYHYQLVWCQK

[6] = biological target: Voltage-dependent T-type calcium channel subunit alpha-1H (Homo sapiens, UniProt O95180); format: functional;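 note: channel activity triggered by adding a high calcium stimulation buffer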
[7] = NIH3T3 cell viability loss – ATP luminescence, mouse fibroblasts, counter-screen, dose response (AID 2010); format: functional, cell-based;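 note: cells exposed to compound for about 90 hours before reading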
cells [8] = format: functional, cell-based
cells [9] = format: functional, cell-based; remark: listed apart in the source
Streptococcus = assay: GAS UMAA2166 growth inhibition – luminescence, BacTiterGlo, counter-screen for streptokinase expression inhibitor project, dose response (AID 1915); format: functional, organism-based;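 note: potency for reduction of bacterial viability or growth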
Streptokinase A = biological target: T1, Streptokinase A (Streptococcus pyogenes serotype M1, UniProt P10520); assay: viability-normalized secreted streptokinase activity reduction – plasminogen activation absorbance, OD405, dose response (AID 1914); format: functional, Streptococcus pyogenes M1 GAS;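 note: secreted streptokinase activity via plasminogen activation per viability signal from cell pellet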
T1 sequence (P10520 whole entry): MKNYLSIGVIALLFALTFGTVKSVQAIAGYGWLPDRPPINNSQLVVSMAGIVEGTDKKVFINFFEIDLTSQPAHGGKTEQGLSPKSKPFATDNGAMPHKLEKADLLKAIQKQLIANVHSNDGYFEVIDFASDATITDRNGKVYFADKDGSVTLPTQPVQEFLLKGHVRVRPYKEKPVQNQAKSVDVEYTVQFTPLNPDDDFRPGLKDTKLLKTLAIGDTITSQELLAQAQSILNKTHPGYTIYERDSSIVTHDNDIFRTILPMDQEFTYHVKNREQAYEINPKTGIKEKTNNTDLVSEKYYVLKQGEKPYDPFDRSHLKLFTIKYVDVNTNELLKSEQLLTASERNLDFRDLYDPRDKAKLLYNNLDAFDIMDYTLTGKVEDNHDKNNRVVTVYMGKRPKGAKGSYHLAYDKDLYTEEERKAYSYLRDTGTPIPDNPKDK

[10] = system: Streptococcus sp. 'group A'; assay: Streptococcus pyogenes SK(-)GAS viability under kanamycin – luminescence, BacTiterGlo, confirmation, counter-screen for streptokinase expression inhibitor project, dose response (AID 1900); format: functional, organism-based
H9c2 = assay: cells; format: functional, cell-based; conditions: Rattus norvegicus, H9c2, Myocardium;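 note: confirmatory concentration-response retest of ultra-high-throughput screening hits for modulation of myocardial damage; cell death induced by hydrogen peroxide oxidative stress; compound pretreatment for 60 min then peroxide exposure for 2 h; potency is for protecting the cells against peroxide damage rather than for killing them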
[11] = intracellular Trypanosoma cruzi inhibitors in host cells – cell-based, plate reader, cherry-pick samples, set 3, dose response (AID 651818); format: functional;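 note: compounds incubated with infected cells for about four days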
[12] = biological target: T2, Sentrin-specific protease 8 (Homo sapiens, UniProt Q96LD8); format: functional
T2 sequence (Q96LD8 whole entry): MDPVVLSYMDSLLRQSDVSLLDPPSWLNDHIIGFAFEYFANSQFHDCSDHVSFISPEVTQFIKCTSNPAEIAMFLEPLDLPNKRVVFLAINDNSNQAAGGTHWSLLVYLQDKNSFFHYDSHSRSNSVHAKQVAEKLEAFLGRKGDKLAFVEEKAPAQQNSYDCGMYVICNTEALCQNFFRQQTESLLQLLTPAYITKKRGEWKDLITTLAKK

[13] = biological target: T2, Sentrin-specific protease 8; format: functional; remark: listed apart in the source
[14] = biological target: T3, Histone-lysine N-methyltransferase NSD2 (Homo sapiens, UniProt O96028); format: biochemical
T3 sequence (O96028 whole entry): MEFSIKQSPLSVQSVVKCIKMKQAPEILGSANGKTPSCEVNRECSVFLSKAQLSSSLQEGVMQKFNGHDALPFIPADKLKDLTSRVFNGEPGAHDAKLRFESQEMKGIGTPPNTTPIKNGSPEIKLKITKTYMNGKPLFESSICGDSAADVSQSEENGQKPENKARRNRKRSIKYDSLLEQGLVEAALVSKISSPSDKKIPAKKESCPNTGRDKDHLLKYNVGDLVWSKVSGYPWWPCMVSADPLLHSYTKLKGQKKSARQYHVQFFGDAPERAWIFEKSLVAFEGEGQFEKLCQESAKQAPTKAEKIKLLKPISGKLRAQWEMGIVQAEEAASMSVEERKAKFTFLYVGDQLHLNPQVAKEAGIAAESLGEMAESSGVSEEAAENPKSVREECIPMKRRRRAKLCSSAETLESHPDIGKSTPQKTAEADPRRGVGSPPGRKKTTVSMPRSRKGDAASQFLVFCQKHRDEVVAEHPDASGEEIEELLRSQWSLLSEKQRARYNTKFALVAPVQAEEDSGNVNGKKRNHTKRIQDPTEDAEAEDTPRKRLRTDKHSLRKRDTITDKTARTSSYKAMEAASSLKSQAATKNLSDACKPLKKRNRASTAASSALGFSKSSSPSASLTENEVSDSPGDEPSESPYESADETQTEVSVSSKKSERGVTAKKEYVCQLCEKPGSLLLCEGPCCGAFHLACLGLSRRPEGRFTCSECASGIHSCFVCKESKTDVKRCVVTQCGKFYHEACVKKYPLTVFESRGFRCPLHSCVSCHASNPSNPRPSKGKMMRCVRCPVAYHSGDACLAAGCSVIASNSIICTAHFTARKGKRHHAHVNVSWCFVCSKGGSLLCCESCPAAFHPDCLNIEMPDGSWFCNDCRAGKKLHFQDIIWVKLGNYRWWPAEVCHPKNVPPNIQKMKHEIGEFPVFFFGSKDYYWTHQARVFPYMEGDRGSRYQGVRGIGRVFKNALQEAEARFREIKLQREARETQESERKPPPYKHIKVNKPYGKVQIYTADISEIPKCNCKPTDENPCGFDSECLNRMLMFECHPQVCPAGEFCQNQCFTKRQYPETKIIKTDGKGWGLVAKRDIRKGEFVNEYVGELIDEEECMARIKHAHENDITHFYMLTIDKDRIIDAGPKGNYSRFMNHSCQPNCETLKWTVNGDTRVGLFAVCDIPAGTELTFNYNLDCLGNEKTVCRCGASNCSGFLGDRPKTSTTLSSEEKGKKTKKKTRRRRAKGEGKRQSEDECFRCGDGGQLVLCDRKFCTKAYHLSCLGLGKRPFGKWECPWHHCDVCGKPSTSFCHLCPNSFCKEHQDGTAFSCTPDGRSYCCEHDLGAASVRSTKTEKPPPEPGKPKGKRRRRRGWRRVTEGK

With `CCN(CC)C(=O)CSc1nc(O)c(Cc2ccccc2)c(=O)n1-c1ccccc1` the IC50 (cells [1]) was > 138 µM (inactive) and the IC50 (Major prion protein) was 14.6 µM (inactive).

In the case of `Cc1cccc(N(CC(=O)N2CCN(c3ccc(F)cc3)CC2)S(C)(=O)=O)c1C`, the EC50 [2] is reported as > 79.4 µM (not active), the EC50 [3] is reported as > 79.4 µM (not active) and the EC50 [4] is reported as > 79.4 µM (not active).

For `CC(=O)Nc1ccc(-c2ccnc(-c3ccc(NC(C)=O)cc3)n2)cc1`, the IC50 (cells [1]) was > 138 µM (inactive) and the IC50 (Major prion protein) was 26.7 µM (inactive).

In the case of `O=C(O)CSc1ncnc2sc3c(c12)CCCC3`, the IC50 (cells [1]) is reported as > 138 µM (inactive) and the IC50 (Major prion protein) is reported as 8.49 µM (active).

With `Cc1ccc(OCC(=O)N2CCN(c3nnc(-c4ccccc4)c4ccccc34)CC2)cc1` the EC50 [5] was 1.92 µM (active), the IC50 (Beta-galactosidase) was > 80 µM (inactive) and the EC50 [6] was 3.8 µM (active). For the same compound, the EC50 [7] was > 60 µM (not active).

In the case of `Oc1nc(Nc2ccccc2)nc(N2CCCCC2)n1`, the EC50 (cells [8]) is reported as > 29.9 µM (inactive) and the IC50 (cells [9]) is reported as > 29.9 µM (inactive).

With `COc1ccc(NC(=S)N2CCc3ccccc3C2)cc1OC` the EC50 (cells [8]) was > 29.9 µM (inactive) and the IC50 (cells [9]) was > 29.9 µM (inactive).

For `CC1C(Br)C(=O)NC(=O)N1Cc1ccccc1` (stereo not drawn), the EC50 [2] was > 79.4 µM (not active), the EC50 [3] was > 79.4 µM (not active) and the EC50 [4] was > 79.4 µM (not active).

For `Cc1cc(OCc2ccccc2)ccc1C(=O)C1=C(O)C(=O)N(Cc2cccnc2)C1c1ccncc1` (stereo not drawn), the IC50 (cells [1]) was > 138 µM (inactive) and the IC50 (Major prion protein) was 12.5 µM (inactive).

For `CN1CCN(C(=O)/C=C\c2ccc(Cl)cc2)CC1`, the IC50 (Beta-galactosidase) was > 80 µM (inactive).

In the case of `CC(=O)N1CCN(c2ccc(NC(=O)/C=C/c3ccccc3)cc2)CC1`, the EC50 [2] is reported as > 79.4 µM (not active), the EC50 [3] is reported as > 79.4 µM (not active) and the EC50 [4] is reported as > 79.4 µM (not active).

For `O=C(Nc1ccc(Oc2ccccc2)nc1)C1CCCCN1Cc1cccc(O)c1` (stereo not drawn), the IC50 (Beta-galactosidase) was > 80 µM (inactive).

For `COc1ccccc1N1CCN(C(=O)/C=C/c2ccc(C)cc2)CC1`, the EC50 (Streptococcus) was > 150 µM (not active), the IC50 (Beta-galactosidase) was > 80 µM (inactive) and the EC50 (Streptokinase A) was 107 µM (active). For the same compound, the EC50 [10] was > 150 µM (not active).

With `CCc1cc2cccc(C)c2nc1SCC(=O)N1CCN(C(=O)c2ccco2)CC1` the IC50 (H9c2) was > 79 µM (inactive), the IC50 (cells [1]) was 54.9 µM (inactive) and the IC50 (Major prion protein) was 10.7 µM (inactive).

With `O=C1CCN(Cc2ccccc2)C=C1c1ccc2ccccc2c1` the IC50 (Beta-galactosidase) was > 80 µM (inactive).

In the case of `Cc1ccc(C(=O)NNC(=O)CSc2nnc(-c3ccccc3)n2Cc2ccccc2)cc1`, the IC50 (Beta-galactosidase) is reported as > 80 µM (inactive).

In the case of `O=C(N/N=C/c1cc(Br)cc(Br)c1O)c1ccccc1O`, the AC50 [11] is reported as 1.85 µM (active).

With `C[C@@H]1CCCCO[C@H](CN(C)S(=O)(=O)c2ccc(Cl)cc2)[C@@H](C)CN([C@H](C)CO)C(=O)c2cc(NC(=O)Nc3ccc(C(F)(F)F)cc3)ccc2O1` the AC50 [11] was 3 µM (active).

For `Cc1ccc(S(=O)(=O)Nc2ccc3c(c2)CC(=O)N([C@@H](C)CO)C[C@@H](C)[C@@H](CN(C)S(=O)(=O)c2ccc(C)cc2)O3)cc1`, the AC50 [11] was 6.15 µM (active).

For `C[C@H](CO)N1C[C@H](C)[C@@H](CN(C)Cc2ccc(C(=O)Nc3ccccc3N)cc2)Oc2c(NC(=O)Nc3ccccc3)cccc2C1=O`, the AC50 [11] was 1.61 µM (active).

For `C[C@H]1CN([C@@H](C)CO)C(=O)Cc2cc(NC(=O)CCC(F)(F)F)ccc2O[C@H]1CN(C)Cc1ccc(C(=O)Nc2ccccc2N)cc1`, the AC50 [11] was 5.91 µM (active).

With `C[C@@H]1CN([C@@H](C)CO)C(=O)c2cccc(NC(=O)Nc3ccc(F)cc3)c2O[C@H]1CN(C)Cc1ccc(C(=O)Nc2ccccc2N)cc1` the AC50 [11] was 0.46 µM (active).

For `C[C@H]1CN([C@@H](C)CO)C(=O)c2cccc(NC(=O)Nc3ccc(F)cc3)c2O[C@H]1CN(C)Cc1ccc(C(=O)Nc2ccccc2N)cc1`, the AC50 [11] was 2.74 µM (active).

In the case of `C[C@H]1COc2c3ccc(I)cc3nn21`, the IC50 (cells [1]) is reported as > 138 µM (inactive) and the IC50 (Major prion protein) is reported as 3.61 µM (active).

In the case of `COc1cc(OC)c([N+](=O)[O-])cc1/C=N/NC(=O)c1ccncc1`, the IC50 [12] is reported as 12.3 µM (active), the IC50 [13] is reported as 9.81 µM (active) and the AC50 [14] is reported as > 20 µM (inactive).
